One compound from US8043826B2, “Device for monitoring inhibition of platelet function response” (Medical Innovations International, Inc., priority 2005, dated 2011) can be followed below.

The test deals with platelets. Nature of the test: Assaying platelet aspirin response: luciferin/luciferase light emission (extracellular ATP) in arachidonic-acid-treated diluted whole blood drawn before and after taking aspirin. Type of test: cell-based, human. Conditions: individuals of FIGS. 2A and 2C; blood drawn after aspirin 325 mg; no-aspirin sample very steep. The procedure:
Volunteers who had not taken aspirin in the previous 24 hours underwent a finger prick to draw blood. Blood (2 μl) was diluted into 1 ml of buffer (PBS, 0.9% NaCl, 10 mM sodium phosphate, pH 7.0) in a clear test tube. An aliquot (15 μl) of luciferin/luciferase solution (containing 10 mg/ml luciferin and 10 μg/ml luciferase) was added to the diluted blood. The solution was mixed and placed in a Zylux FEMPTOMASTER FB12 photon counter. A baseline reading of the light emission was taken. The test tube was then withdrawn, and 5 μl of 15 mM arachidonic acid was added to the solution and the solution was mixed. The test tube was then reinserted in the photon counter and light emission readings were taken for approximately 2 to 4 minutes.
The volunteer then swallowed or chewed an aspirin (325 mg). A blood sample was taken, and the process was repeated. The results from blood drawn from an individual before and after taking aspirin were compared.

`CC(=O)Oc1ccccc1C(=O)O` [aspirin]: the “slope of light emission vs. time after arachidonic acid is added, aspirin sample” value is “almost flat”.
